From US7632829B2, “Diazepan derivatives” (Hoffmann-La Roche Inc., priority 2006, dated 2009)

Target: T1, human chemokine receptor 2 isoform B (Homo sapiens, UniProt P41597)
T1 construct: host or cells: CHOK1-CCR2B-A5 (CHO-K1)
T1 sequence (P41597 1-360 isoform P41597-2): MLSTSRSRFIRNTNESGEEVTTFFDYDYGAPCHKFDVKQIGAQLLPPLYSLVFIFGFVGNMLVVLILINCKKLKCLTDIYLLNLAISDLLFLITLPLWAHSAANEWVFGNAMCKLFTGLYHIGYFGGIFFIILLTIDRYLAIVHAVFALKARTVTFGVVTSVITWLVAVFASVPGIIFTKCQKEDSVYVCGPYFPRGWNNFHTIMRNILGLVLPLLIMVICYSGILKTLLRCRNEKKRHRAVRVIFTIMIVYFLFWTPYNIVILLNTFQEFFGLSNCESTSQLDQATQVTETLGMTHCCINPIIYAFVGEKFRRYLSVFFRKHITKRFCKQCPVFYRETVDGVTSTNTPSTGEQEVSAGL
Assay: Calcium mobilization assay (FLIPR, CHOK1-CCR2B-A5 cells, 20 nM MCP-1)
Assay type: cell-based
Settings: Ca mobilisation assay, CCR2, antagonist activity vs 20 nM MCP-1
Experimental: CHOK1-CCR2B-A5 cells (from Euroscreen) stably overexpressing the human chemokine receptor 2 isoform B were cultured in Nutrient Hams F12 medium supplemented with 5% FBS, 100 U/ml penicillin, 100 μg/ml streptomycin, 400 μg/ml G418 and 5 μg/ml puromycin.
For the assay cells were grown overnight in 384-well black clear flat bottom polystyrene plates (Costar) at 37° C. at 5% CO2. After washing with DMEM, 20 mM Hepes, 2.5 mM probenecid, 0.1% BSA (DMEM assay buffer) cells were loaded with 4 μM Fluo-4 in the same DMEM assay buffer for 2 hours at 30° C. Excess dye was removed and cells were washed with DMEM assay buffer. 384-well compound plates were prepared with DMEM assay buffer/0.5% DMSO with or without various concentrations of test compounds. Usually compounds were tested for agonist and antagonist activity.
Test compounds were added to the assay plate and agonist activity was monitored as fluorescence for 80 seconds with a FLIPR (488 nm excitation; 510-570 nm emission; Molecular Devices). After 20-30 min. of incubation at 30° C., 20 nM MCP-1 (R&D; Roche) was added and fluorescence was monitored again for 80 seconds. Increases in intracellular calcium are reported as maximum fluorescence after agonist exposure minus basal fluorescence before exposure. Antagonist activity is indicated as inhibitor concentration required for 50% inhibition of specific calcium increases.

| Molecule | IC50 [µM] |
| --- | --- |
| 1-[(E)-3-(3,4-Dichloro-phenyl)-acryloyl]-4-[3-(4-methyl-piperazin-1-yl)-propyl]-[1,4]diazepan-5-one [Example 75] | 0.267 |
| 4-(3-{4-[(E)-3-(3,4-Dichloro-phenyl)-acryloyl]-7-oxo-[1,4]diazepan-1-yl}-propylamino)-cyclohexanecarboxylic acid amide [Example 77] | 0.326 |
| 4-(3-{4-[(E)-3-(3,4-Dichloro-phenyl)-acryloyl]-7-oxo-[1,4]diazepan-1-yl}-propylamino)-cyclohexanecarboxylic acid ethyl ester [Example 67] | 0.241 |
| 4-[3-(4-Methyl-4-hydroxy-piperidin-1-yl)-propyl]-1-[(E)-3-(3,4-dichloro-phenyl)-acryloyl]-[1,4]diazepan-5-one [Example 76] | 0.219 |
| 4-[3-(Cyclohexy-methyl-amino)-ethyl]-1-[(E)-3-(3,4-dichloro-phenyl)-acryloyl]-[1,4]diazepan-5-one [Example 111] | 0.335 |
| CC1CCC(N(C)CCCN2CCN(C(=O)/C=C/c3ccc(Cl)c(Cl)c3)CCC2=O)CC1 (mixture of isomers) [Example 54, cis/trans-1-[(E)-3-(3,4-Dichloro-phenyl)-acryloyl]-4-{3-[methyl-(4-methyl-cyclohexyl)-amino]-propyl}-[1,4]diazepan-5-one] | 0.747 |
| CC1CCCCC1NCCCN1CCN(C(=O)C=Cc2ccc(Cl)c(Cl)c2)CCC1=O (mixture of isomers) [Example 64, cis/trans-1-[(E)-3-(3,4-Dichloro-phenyl)-acryloyl]-4-[3-(2-methyl-cyclohexylamino)-propyl]-[1,4]diazepan-5-one] | 0.391 |
| CC1CCCCC1NCCN1CCN(C(=O)C=Cc2ccc(Cl)c(Cl)c2)CCC1=O (mixture of isomers) [Example 104, cis/trans-1-[(E)-3-(3,4-Dichloro-phenyl)-acryloyl]-4-[3-(2-methyl-cyclohexylamino)-ethyl]-[1,4]diazepan-5-one] | 0.598 |
| CC1CCC(N(C)CCN2CCN(C(=O)/C=C/c3ccc(Cl)c(Cl)c3)CCC2=O)CC1 (mixture of isomers) [Example 124, cis/trans-1-[(E)-3-(3,4-Dichloro-phenyl)-acryloyl]-4-{3-[methyl-(4-methyl-cyclohexyl)-amino]-ethyl}-[1,4]diazepan-5-one] | 0.667 |
| CC1CCC(NCCN2CCN(C(=O)/C=C/c3ccc(Cl)c(Cl)c3)CCC2=O)CC1 (mixture of isomers) [Example 138, cis/trans-1-[(E)-3-(3,4-Dichloro-phenyl)-acryloyl]-4-{3-[(4-methyl-cyclohexyl)-amino]-ethyl}-[1,4]diazepan-5-one] | 1.26 |
| CC1C(O)CCCN1CCCN1CCN(C(=O)C=Cc2ccc(F)c(Cl)c2)CCC1=O (mixture of isomers) [Example 208, (rac,trans)-1-[(E)-3-(3-Chloro-4-fluoro-phenyl)-acryloyl]-4-[3-(3-hydroxy-2-methyl-piperidin-1-yl)-propyl]-[1,4]diazepan-5-one] | 0.78 |
| CC1C(O)CCCN1CCCN1CCN(C(=O)C=Cc2ccc(F)c(Cl)c2)CCC1=O (mixture of isomers) [Example 209, (rac,cis)-1-[(E)-3-(3-Chloro-4-fluoro-phenyl)-acryloyl]-4-[3-(3-hydroxy-2-methyl-piperidin-1-yl)-propyl]-[1,4]diazepan-5-one] | 1.39 |
| O=C(C=Cc1ccc(F)c(Cl)c1)N1CCC(=O)N(CCCN2CCC(F)C(O)C2)CC1 (mixture of isomers) [Example 213, (rac,trans)-1-[(E)-3-(3-Chloro-4-fluoro-phenyl)-acryloyl]-4-[3-(4-fluoro-3-hydroxy-piperidin-1-yl)-propyl]-[1,4]diazepan-5-one] | 0.421 |
| O=C(C=Cc1ccc(F)c(Cl)c1)N1CCC(=O)N(CCCN2CCC(O)C(F)C2)CC1 (mixture of isomers) [Example 214, (rac,trans)-1-[(E)-3-(3-Chloro-4-fluoro-phenyl)-acryloyl]-4-[3-(3-fluoro-4-hydroxy-piperidin-1-yl)-propyl]-[1,4]diazepan-5-one] | 0.592 |
| CC1CC(O)CN(CCCN2CCN(C(=O)C=Cc3ccc(F)c(Cl)c3)CCC2=O)C1 (mixture of isomers) [Example 224, (rac,cis)-1-[(E)-3-(3-Chloro-4-fluoro-phenyl)-acryloyl]-4-[3-(3-hydroxy-5-methyl-piperidin-1-yl)-propyl]-[1,4]diazepan-5-one] | 0.014 |

Other lines, results leading:

| IC50 [µM] | Molecule |
| --- | --- |
| 0.243 | CC1C(O)CCCN1CCCN1CCN(C(=O)C=Cc2ccc(Cl)c(Cl)c2)CCC1=O (mixture of isomers) [Example 225, (rac,trans)-1-[(E)-3-(3,4-Dichlorophenyl)-acryloyl]-4-[3-(3-hydroxy-2-methyl-piperidin-1-yl)-propyl]-[1,4]diazepan-5-one] |
| 0.218 | O=C(C=Cc1ccc(Cl)c(Cl)c1)N1CCC(=O)N(CCCN2CCC(O)C(F)C2)CC1 (mixture of isomers) [Example 231, (rac,trans)-1-[(E)-3-(3,4-Dichloro-phenyl)-acryloyl]-4-[3-(3-fluoro-4-hydroxy-piperidin-1-yl)-propyl]-[1,4]diazepan-5-one] |
| 0.077 | O=C(C=Cc1ccc(Cl)c(Cl)c1)N1CCC(=O)N(CCCN2CCC(CO)C(O)C2)CC1 (mixture of isomers) [Example 266, (rac,cis)-1-[(E)-3-(3,4-Dichloro-phenyl)-acryloyl]-4-[3-(3-hydroxy-4-hydroxymethyl-piperidin-1-yl)-propyl]-[1,4]diazepan-5-one] |
| 1.09 | COC1COCCC1NCCCN1CCN(C(=O)C=Cc2ccc(Cl)c(Cl)c2)CCC1=O (mixture of isomers) [Example 275, (rac,cis)-1-[(E)-3-(3,4-Dichloro-phenyl)-acryloyl]-4-[3-(3-methoxy-tetrahydro-pyran-4-ylamino)-propyl]-[1,4]diazepan-5-one] |
| 0.005 | CC1CC(O)CN(CCCN2CCN(C(=O)C=Cc3ccc(Cl)c(Cl)c3)CCC2=O)C1 (mixture of isomers) [Example 279, (rac,cis)-1-[(E)-3-(3,4-Dichloro-phenyl)-acryloyl]-4-[3-(3-hydroxy-5-methyl-piperidin-1-yl)-propyl]-[1,4]diazepan-5-one] |
| 0.028 | O=C(/C=C/c1ccc(Cl)c(Cl)c1)N1CCC(=O)N(C[C@@H](O)CN2CC[C@H](CO)[C@H](O)C2)CC1 (mixture of isomers) [Example 328, 1-[(E)-3-(3,4-Dichloro-phenyl)-acryloyl]-4-[(S)-2-hydroxy-3-(cis-3-hydroxy-4-hydroxymethyl-piperidin-1-yl)-propyl]-[1,4]diazepan-5-one] |
| 0.137 | COC[C@H]1CCN(C[C@H](O)CN2CCN(C(=O)/C=C/c3ccc(Cl)c(Cl)c3)CCC2=O)C[C@H]1O (mixture of isomers) [Example 329, 1-[(E)-3-(3,4-Dichloro-phenyl)-acryloyl]-4-[(S)-2-hydroxy-3-(cis-3-hydroxy-4-methoxymethyl-piperidin-1-yl)-propyl]-[1,4]diazepan-5-one] |
| 0.301 | O=C(/C=C/c1ccc(Cl)c(Cl)c1)N1CCC(=O)N(C[C@@H](O)CN2CC[C@@H](CO)[C@H](O)C2)CC1 (mixture of isomers) [Example 333, 1-[(E)-3-(3,4-Dichloro-phenyl)-acryloyl]-4-[(S)-2-hydroxy-3-(trans-3-hydroxy-4-hydroxymethyl-piperidin-1-yl)-propyl]-[1,4]diazepan-5-one] |
| 0.013 | C[C@@H]1C[C@H](O)CN(C[C@H](O)CN2CCN(C(=O)/C=C/c3ccc(Cl)c(Cl)c3)CCC2=O)C1 (mixture of isomers) [Example 335, 1-[(E)-3-(3,4-Dichloro-phenyl)-acryloyl]-4-[(S)-2-hydroxy-3-(cis-3-hydroxy-5-methyl-piperidin-1-yl)-propyl]-[1,4]diazepan-5-one] |
| 0.071 | O=C(/C=C/c1ccc(F)c(Cl)c1)N1CCC(=O)N(C[C@@H](O)CN2CC[C@H](CO)[C@H](O)C2)CC1 (mixture of isomers) [Example 337, 1-[(E)-3-(3-Chloro-4-fluoro-phenyl)-acryloyl]-4-[(S)-2-hydroxy-3-(cis-3-hydroxy-4-hydroxymethyl-piperidin-1-yl)-propyl]-[1,4]diazepan-5-one] |
| 0.553 | COC[C@H]1CCN(C[C@H](O)CN2CCN(C(=O)/C=C/c3ccc(F)c(Cl)c3)CCC2=O)C[C@H]1O (mixture of isomers) [Example 338, 1-[(E)-3-(3-Chloro-4-fluoro-phenyl)-acryloyl]-4-[(S)-2-hydroxy-3-(cis-3-hydroxy-4-methoxymethyl-piperidin-1-yl)-propyl]-[1,4]diazepan-5-one] |
